Laboratory results published in ChEMBL document CHEMBL2021908, “Identification of novel isocytosine derivatives as xanthine oxidase inhibitors from a set of virtual screening hits” (Bioorg Med Chem, 2012).

How the values were obtained:
[1] = target: T1, Xanthine dehydrogenase/oxidase (Bos taurus, UniProt P80457); assay: Inhibition of bovine xanthine oxidase assessed as uric acid formation using xanthine as substrate at 100 uM after 30 mins by spectrophotometric analysis; settings: cattle, 0.5 h
[2] = target: T1, Xanthine dehydrogenase/oxidase; assay: Inhibition of bovine xanthine oxidase assessed as uric acid formation using xanthine as substrate after 30 mins by spectrophotometric analysis
Rattus norvegicus [3] = assay: Antihyperuricemic activity in Sprague-Dawley rat assessed as decrease of potassium oxonate-induced uric acid level in serum at 100 mg/kg, po administered 1 hr post potassium oxonate challenge measured after 4 hrs by photometric analysis relative to control; format: functional; design: scale not given: the % may be the effect or the level left
Rattus norvegicus [4] = assay: Antihyperuricemic activity in Sprague-Dawley rat assessed as decrease of potassium oxonate-induced uric acid level in serum at 50 mg/kg, ip administered 1 hr post potassium oxonate challenge measured after 4 hrs by photometric analysis relative to control; format: functional; design: scale not given: the % may be the effect or the level left; settings: route intraperitoneal
[5] = target: T1, Xanthine dehydrogenase/oxidase; assay: Inhibition of bovine xanthine oxidase assessed as uric acid formation using xanthine as substrate at 10 uM after 30 mins by spectrophotometric analysis; settings: cattle, 0.5 h
Rattus norvegicus [6] = assay: Antihyperuricemic activity in Sprague-Dawley rat assessed as decrease of potassium oxonate-induced uric acid level in serum at 10 mg/kg, po administered 1 hr post potassium oxonate challenge measured after 4 hrs by photometric analysis relative to control; design: scale not given: the % may be the effect or the level left

T1 sequence (P80457 whole entry): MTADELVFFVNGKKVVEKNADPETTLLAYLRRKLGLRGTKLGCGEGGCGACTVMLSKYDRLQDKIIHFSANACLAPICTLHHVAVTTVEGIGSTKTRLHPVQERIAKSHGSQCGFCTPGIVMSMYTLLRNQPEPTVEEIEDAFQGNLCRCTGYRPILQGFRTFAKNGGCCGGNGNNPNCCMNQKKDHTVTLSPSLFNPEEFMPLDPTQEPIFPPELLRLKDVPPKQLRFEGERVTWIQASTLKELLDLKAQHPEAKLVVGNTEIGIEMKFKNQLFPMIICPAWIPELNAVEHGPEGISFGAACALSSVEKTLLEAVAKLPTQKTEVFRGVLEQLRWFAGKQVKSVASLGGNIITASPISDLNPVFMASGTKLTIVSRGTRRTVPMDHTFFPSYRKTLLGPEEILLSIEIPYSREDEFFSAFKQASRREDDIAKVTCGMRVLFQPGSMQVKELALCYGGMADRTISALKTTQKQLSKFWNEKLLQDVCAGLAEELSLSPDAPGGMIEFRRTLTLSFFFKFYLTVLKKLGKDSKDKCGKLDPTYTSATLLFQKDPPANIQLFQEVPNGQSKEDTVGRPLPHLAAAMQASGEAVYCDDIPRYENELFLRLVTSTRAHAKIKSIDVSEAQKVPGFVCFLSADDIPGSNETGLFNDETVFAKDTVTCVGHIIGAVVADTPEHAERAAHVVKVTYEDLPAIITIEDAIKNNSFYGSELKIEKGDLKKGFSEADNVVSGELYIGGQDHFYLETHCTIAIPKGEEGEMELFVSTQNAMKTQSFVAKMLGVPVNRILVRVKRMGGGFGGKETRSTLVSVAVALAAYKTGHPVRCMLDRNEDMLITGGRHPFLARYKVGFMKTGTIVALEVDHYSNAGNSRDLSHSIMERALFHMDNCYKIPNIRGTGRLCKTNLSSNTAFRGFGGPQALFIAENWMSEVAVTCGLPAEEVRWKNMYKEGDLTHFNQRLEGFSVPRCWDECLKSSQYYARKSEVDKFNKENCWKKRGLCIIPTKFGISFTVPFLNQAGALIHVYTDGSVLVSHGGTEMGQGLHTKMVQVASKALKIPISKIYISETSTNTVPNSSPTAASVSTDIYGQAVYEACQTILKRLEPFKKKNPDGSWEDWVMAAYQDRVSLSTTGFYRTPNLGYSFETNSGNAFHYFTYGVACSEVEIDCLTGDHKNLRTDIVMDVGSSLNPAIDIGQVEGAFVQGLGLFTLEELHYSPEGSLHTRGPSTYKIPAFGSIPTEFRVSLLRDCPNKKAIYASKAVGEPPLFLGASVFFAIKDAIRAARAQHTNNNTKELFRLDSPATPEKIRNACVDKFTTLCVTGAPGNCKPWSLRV

In the case of `O=C(O)c1ccc(-n2ccnc2)c([N+](=O)[O-])c1`, the inhibition at 100 µM [1] is reported as 0%.
`COc1ccc(-c2cc(C(F)(F)F)nc(N)n2)cc1` showed an IC50 [2] of over 100 µM.
`COc1ccc(-c2cc(O)nc(O)n2)cc1` gave an inhibition at 100 µM [1] of 0% and an IC50 [2] of over 100 µM.
`COc1ccc(-c2cc(O)nc(N)n2)cc1` gave an Activity (Rattus norvegicus [3]) of 84%.
In the case of `COc1ccc(-c2cc(O)nc(N)n2)cc1OC`, the Activity (Rattus norvegicus [4]) is reported as 57%.
`COc1cc2c(cc1OC)-c1n[nH]c(=O)n1CC2` was tested, and the inhibition at 100 µM [1] was 0%.
With `O=C1C(=CNNc2ccccc2)C(=O)N(c2ccc(Cl)cc2)C(=S)N1c1ccc(Cl)cc1` the inhibition at 100 µM [1] was 0%.
Molecule `COC(=O)c1cc(C)c2c(c1)S(=O)(=O)Cc1cc(NN)cc(Cl)c1O2` has an inhibition at 100 µM [1] of 0%.
`COc1ccc(-c2cc(NS(C)(=O)=O)nc(N)n2)cc1` was tested, and the IC50 [2] was over 100 µM.
With `Oc1ncnc2[nH]ncc12` [ALLOPURINOL] the inhibition at 10 µM [5] was 100% and the Activity (Rattus norvegicus [6]) was 184%.
For `Cc1nc(-c2ccc(OCC(C)C)c(C#N)c2)sc1C(=O)O` [FEBUXOSTAT], the Activity (Rattus norvegicus [6]) was 209%.
